How the values were obtained:
[1] = tested on: human neonatal fibroblasts; test: Scratch closure, human neonatal fibroblasts, Method 2; type: cell-based
Procedure: (§1) The ability of early. passage neonatal foreskin fibroblasts (NFF) cultured in RPMI 1640-10% foetal calf serum to migrate across a scratch wound made in a confluent monolayer following treatment with purified compounds or plant extracts was determined using one or more of the following three methods.
Cells were seeded in 6 mm wells (96-well plates) or 16 mm (24-well plates), with 2 to 6 replicate wells/dilution, and treated as in Method 1. Immediately after treatment, the scratch edges were outlined on the underside of the well with a fine point felt pen. After fixing and staining, migration was assessed under the microscope with the aid of a graticule, scoring migration as 0, 25, 50, 75 or 100% (total closure) of the initial width. Accelerated wound closure was considered to be significant if mean quartile of replicates was […] that of untreated controls (p<0.05, t-test). In addition, “wound” areas were created by seeding cells in the presence of 3 mm stainless steel pins (96-well plate), or by inserting flat-edged Teflon rings. These devices were removed after overnight incubation of the NFF cells.

[2] = tested on: human neonatal fibroblasts; test: Scratch closure, human neonatal fibroblasts, Method 3 (IncuCyte); type: cell-based
Procedure: as §1
Cells were seeded and treated in 96-well plates as in Method 2 (5 replicate wells per dilution), except that the scratches were made in one action with a tool having 96, 1 mm thick teflon coated pins (Essen Bioscience Woundmaker). The plate was then placed in a 37° C., 5% CO2 humidified atmosphere in an IncuCyte FLR instrument programmed to photograph each well under phase contrast at 3 hr intervals for 42 hours. The software determined the initial scratch boundaries and their rate of closure. Accelerated wound closure was considered to be significant if the initial rate of closure was >10% of the untreated controls.

[3] = tested on: mouse skin; test: Acute inflammatory response in mouse skin; type: in vivo; conditions: male nude mice, s.c. 50 μL of 100 μg/mL; for scarring of the healed site: 14 days; for diameter of affected area of skin: by 24 hr
Procedure: Male nude mice were injected subcutaneously on each flank with 50 μL of solutions of 100 μg/mL of Compounds 1, 2, 5 and 42 respectively in 20% propylene glycol. Each site reddened within 4 hr and by 24 hr the affected area covered approximately 1 cm diameter of skin.

[4] = tested on: human peripheral blood monocytes; test: Differentiation of monocytes into macrophages; type: cell-based; conditions: 10-fold dilutions; 4 days; adherence and morphology
Procedure: To determine potential effects of Compound 1 and fifteen other epoxy-tigliane compounds in the array on monocyte differentiation, human peripheral blood mononuclear cells (PBMCs) were isolated by Ficoll-Paque sedimentation of heparinised blood from a human donor, and plated at 100,000 cells/well in RPMI-1640 10% FCS. Duplicate wells were treated with 10-fold dilutions of the compounds and incubated at 37° C. for 4 days. The wells were scored visually for cell attachment and morphology, then washed twice with PBS, stained with sulfurhodamine and the incorporate stain quantitated in an ELISA reader. The plates were then washed with water and stained with 1% crystal violet in methanol for photography and scoring of adherent cell morphology.

[5] = tested on: human peripheral blood mononuclear cells (PBMCs); test: Cytokine production by PBMCs (Cytometric Bead Array); type: cell-based; conditions: 24 hr, ± standard deviation
From the text: Specific cytokines play critical roles in wound healing processes, and agents that modulate these substances may be useful in treating wounds and/or improving the cosmetic outcomes of healing (e.g. reduced scarring). The effects of Compounds 1, 2, 5 and 42 on regulation of four cytokines (IL-1β, IL-6, IL-8 and TNFα) known to be critical in early stages of the wound healing process were investigated in human peripheral blood mononuclear cells (PBMCs).
PBMCs were isolated by Ficoll-Paque sedimentation of heparinised blood acquired from both a person (Donor 1) and (Donor 2) human donor. All cells were cultured in 10% FCS, RPMI as detailed previously.
PBMCs were seeded at a density of 1.5×10^5 cells per well in 10% FCS, RPMI. Stimulation of these cells with the four compounds was performed at four concentrations (0 ng/mL, 3 ng/mL, 30 ng/mL, 300 ng/mL) in duplicate for 24 h in a humidified incubator at 37° C., 5% CO2. Media samples were taken from each of the required wells and frozen at −80° C. until use.
Cytometric Bead Array (CBA) assays were used to measure the results. CBA assays provide a method for capturing a soluble analyte or set of analytes using antibody coated beads of known sizes and fluorescence. Detection is then performed using another fluorescently labelled secondary antibody to form a sandwich complex. Each media sample was assayed for the presence of soluble […], IL-6, IL-8, IL-10, IL-12p70 and TNFα using a BD (Becton Dickinson) CBA Human Inflammatory Cytokine Detection Kit according to manufacturers' instructions. Mean fluorescence intensity values from each sample were compared against a standard curve to determine cytokine concentrations (pg/mL).

[6] = tested on: human neonatal fibroblasts; test: Matrigel invasion assay for migratory ability; type: cell-based; conditions: 30 ng/mL; 24 hrs; fibroblasts starved 2 days, 1% foetal calf serum; ± standard deviation, two replicate experiments
From the text: Matrigel invasion chambers provide cells with the conditions that allow assessment of their invasive property in vitro. The Matrigel invasion chambers consists of a cell culture companion plate with cell culture inserts containing an 8 micron pore size PET membrane with a thin layer of Matrigel Basement Membrane Matrix. The Matrigel matrix serves as a reconstituted basement membrane in vitro. The layer occludes the pores of the membrane, blocking non-invasive cells from migrating through the membrane. In contrast, invasive cells are able to detach themselves from and invade through the Matrigel matrix and the 8 micron membrane pores. The membrane may be processed for light and electron microscopy and can be easily removed after staining.
The chambers were used according to the manufacturer's instructions, as described below in two studies, to assess the effects of Compounds 1, 2, 5 and 42 on migration of human neonatal fibroblasts. The first study assessed effects of three concentrations (0, 10 and 30 ng/mL) of Compound 1 on neonatal fibroblasts in wells containing media with 10% foetal calf serum. The second study used two concentrations (0 and 30 ng/mL) for each of Compounds 1, 2, 5 and 42 to examine effects on migration of neonatal fibroblasts starved for 2 days prior to treatment and then transferred to media with 1% foetal calf serum.
The package containing the chambers was removed from −20° C. storage and allowed to come to room temperature. Warm (37° C.) bicarbonate based culture medium was added to the interior of the inserts (500 μL) and bottom of wells (750 μL). The chambers containing the Matrigel were allowed to rehydrate for 2 hours in humidified tissue culture incubator, 37° C., 5% CO2 atmosphere. After rehydration, the medium was carefully removed by aspiration without disturbing the layer of Matrigel™ Matrix on the membrane.
Cells were harvested, and resuspended at 20,000 cells per mL. A total of 250 μL of the cell suspension was placed into the interior of the insert (5,000 cells). An extra 250 μL media containing the respective Compounds was then added to the interior of the insert to give the desired final concentrations for each of the two studies. A total of 750 μL of media containing appropriate concentrations of each compound in each treatment were placed in the well under the appropriate insert. The Matrigel chambers were then incubated for 24 hours in a humidified tissue culture incubator, at 37° C., 5% CO2 atmosphere.
Non-invading cells were removed from the upper surface of the membrane by “scrubbing”. A cotton tipped swab was dipped into the insert after removal of the media, and firm pressure applied while the tip was moved over the membrane surface. The scrubbing was repeated with a second swab moistened with PBS. Cells that had invaded to the external surface of the insert were then fixed by placing in […] of 100% methanol for at least 5 mins. Inserts were then transferred to a companion plate containing 500 μL of 0.1% crystal violet in methanol, and stained for at least 15 mins. Inserts were destained by passage through 3 companion plates containing 500 μL water, before being air dried.
The following day, the membrane was removed from the insert housing by inverting the insert and inserting the tip of a sharp scalpel blade through the membrane at the edge adjacent to the housing wall. The insert housing was rotated against the stationary blade and the membrane was released. […]

Row | Compound | scarring of the healed site [3] | diameter of affected area of skin [3] | Differentiation endpoint (endpoint concentration in dilution series for induction of macrophage phenotype) [4] [ng/mL] | IL-1β level ([5]; Donor 1, 3 ng/mL) [pg/mL] | IL-6 level ([5]; Donor 1, 3 ng/mL) [pg/mL] | IL-8 level ([5]; Donor 1, 3 ng/mL) [pg/mL] | TNFα level ([5]; Donor 1, 3 ng/mL) [pg/mL] | IL-1β level ([5]; Donor 1, 30 ng/mL) [pg/mL] | IL-6 level ([5]; Donor 1, 30 ng/mL) [pg/mL] | IL-8 level ([5]; Donor 1, 30 ng/mL) [pg/mL] | TNFα level ([5]; Donor 1, 30 ng/mL) [pg/mL] | IL-1β level ([5]; Donor 1, 300 ng/mL) [pg/mL] | IL-6 level ([5]; Donor 1, 300 ng/mL) [pg/mL] | IL-8 level ([5]; Donor 1, 300 ng/mL) [pg/mL] | TNFα level ([5]; Donor 1, 300 ng/mL) [pg/mL] | IL-1β level ([5]; Donor 2, 3 ng/mL) [pg/mL] | IL-6 level ([5]; Donor 2, 3 ng/mL) [pg/mL] | IL-8 level ([5]; Donor 2, 3 ng/mL) [pg/mL] | TNFα level ([5]; Donor 2, 3 ng/mL) [pg/mL] | IL-1β level ([5]; Donor 2, 30 ng/mL) [pg/mL] | other results
1 | 12,13-dibutanoyl-6,7-epoxy-4,5,9,12,13,20-hexahydroxy-1-tigliaen-3-one [Compound 27] | – | – | – | – | – | – | – | – | – | – | – | – | – | – | – | – | – | – | – | – | % closure compared to control ([1]; 1000 ng/mL): 158%; % closure compared to control ([2]; 2000 ng/mL): 130%
2 | CCCCCC(=O)OC1C(C)C2(O)C(C3OC3(CO)C(O)C3(O)C(=O)C(C)=CC32)C2C(C)(C)C12OC(=O)C(C)CC (centres unmarked) [Compound 5, 12-hexanoyl-13-(2-methylbutanoyl)-6,7-epoxy-4,5,9,12,13,20-hexahydroxy-1-tigliaen-3-one] | minimal scarring | approximately 1 cm | 1 | 2.1 ± 0.1 | 12.4 ± 0.2 | 4924 ± 366 | 85.8 ± 8.4 | 15.7 ± 0.9 | 33.6 ± 0.6 | 17190 ± 55 | 289.9 ± 18.6 | 44 ± 1.6 | 77.5 ± 9.1 | 17275 ± 40 | 306.4 ± 9.0 | 8.1 ± 2.8 | 14.9 ± 1.1 | 4765 ± 999 | 53.9 ± 9.0 | 43.6 ± 6.1 | IL-6 level ([5]; Donor 2, 30 ng/mL): 12.5 ± 1.2 pg/mL; IL-8 level ([5]; Donor 2, 30 ng/mL): 26288 ± 260 pg/mL; TNFα level ([5]; Donor 2, 30 ng/mL): 223 ± 11.2 pg/mL; IL-1β level ([5]; Donor 2, 300 ng/mL): 114.9 ± 2.4 pg/mL; IL-6 level ([5]; Donor 2, 300 ng/mL): 51.9 ± 1.3 pg/mL; IL-8 level ([5]; Donor 2, 300 ng/mL): 33870 ± 2532 pg/mL; TNFα level ([5]; Donor 2, 300 ng/mL): 620.9 ± 66.5 pg/mL; % closure compared to control ([2]; 30 ng/mL): 209%; % closure compared to control ([2]; 200 ng/mL): 300%; Cell count as % of control (Control = no compounds added) [6]: 218 ± 21%
3 | CCCC(=O)OC1C(C)C2(O)C(C3OC3(CO)C(O)C3(O)C(=O)C(C)=CC32)C2C(C)(C)C12OC(=O)C(C)CC (centres unmarked) [Compound 8, 12-butanoyl-13-(2-methylbutanoyl)-6,7-epoxy-4,5,9,12,13,20-hexahydroxy-1-tigliaen-3-one] | – | – | 10 | – | – | – | – | – | – | – | – | – | – | – | – | – | – | – | – | – | % closure compared to control ([1]; 200 ng/mL): 190%
4 | 12,13-di-hexanoyl-6,7-epoxy-4,5,9,12,13,20-hexahydroxy-1-tigliaen-3-one [Compound 42] | minimal scarring | approximately 1 cm | 1 | 2.6 ± 0.6 | 8.1 ± 6.4 | 3013 ± 377 | 45.8 ± 55.2 | 16.8 ± 1.2 | 32.1 ± 6.7 | 16389 ± 884 | 271.9 ± 22.4 | 41.3 ± 1.2 | 71 ± 4.6 | 17425 ± 680 | 267.5 ± 11.9 | 21.7 ± 7.5 | 30.4 ± 11.8 | 7885 ± 2516 | 109.5 ± 29.3 | 71.2 ± 6.0 | IL-6 level ([5]; Donor 2, 30 ng/mL): 23.6 ± 0.8 pg/mL; IL-8 level ([5]; Donor 2, 30 ng/mL): 28176 ± 37 pg/mL; TNFα level ([5]; Donor 2, 30 ng/mL): 354.2 ± 6.3 pg/mL; IL-1β level ([5]; Donor 2, 300 ng/mL): 137.8 ± 10.9 pg/mL; IL-6 level ([5]; Donor 2, 300 ng/mL): 69.3 ± 1.8 pg/mL; IL-8 level ([5]; Donor 2, 300 ng/mL): 32925 ± 552 pg/mL; TNFα level ([5]; Donor 2, 300 ng/mL): 631.6 ± 16.9 pg/mL; Cell count as % of control (Control = no compounds added) [6]: 350 ± 101%

Reference: US10822317B2, “Methods and compositions for wound healing” (QBiotics Limited, priority 2013, dated 2020)
